Measured values reported in patent publication US4603198A, “Cephalosporin derivatives” (Daiichi Seiyaku Co., Ltd., priority 1982, dated 1986).
Converted amounts (≈) assume the structure as drawn. Where a name gives a salt, the structure may show the parent alone.

Experiments:
Ser. marcescens, 10104 = assay: antibacterial activity (in vitro), Minimum Inhibitory Concentration; format: cell-based; conditions: Serratia marcescens, 10^6 /ml of bacteria were seeded, syn isomers
From the text: (§1) The antibacterial activity (in vitro) of the preferred compounds of this invention are shown in the following Table 1 in comparison with known compounds having a structure similar to that of the compounds of this invention. All compounds of Table 1 are syn isomers.
(§2) Minimum Inhibitory Concentration (MIC, mcg/ml) (10^6 /ml of bacteria

Ps. aeruginosa, 32121 = assay: as above; format: cell-based; conditions: Pseudomonas aeruginosa, 10^6 /ml of bacteria were seeded, syn isomers
From the text: as §1, §2

Pr. vulgaris, 08601 = assay: as above; format: cell-based; conditions: Proteus vulgaris, 10^6 /ml of bacteria were seeded, syn isomers
From the text: as §1, §2

E. coli, NIHJ = assay: as above; format: cell-based; conditions: Escherichia coli, 10^6 /ml of bacteria were seeded, syn isomers
From the text: as §1, §2

S. aureus, 209p = assay: as above; format: cell-based; conditions: Staphylococcus aureus, 10^6 /ml of bacteria were seeded, syn isomers
From the text: as §1, §2

Ps. aeruginosa, 32104 = assay: as above; format: cell-based; conditions: Pseudomonas aeruginosa, 10^6 /ml of bacteria were seeded, syn isomers
From the text: as §1, §2

[1] = acute toxicity in mice (i.v.); conditions: mouse, in vivo, iv

SMILES | MIC (Ser. marcescens, 10104) | MIC (Ps. aeruginosa, 32121) | MIC (Pr. vulgaris, 08601) | MIC (E. coli, NIHJ) | MIC (S. aureus, 209p) | MIC (Ps. aeruginosa, 32104) | LD50 [1]
CC(=O)OCC1=C(C(=O)O)N2C(=O)[C@@H](NC(=O)/C(=N\OCc3c[nH]cn3)c3csc(N)n3)[C@H]2SC1 [IH, 7β-(2-(2-aminothiazol-4-yl)-2-((imidazol-4-yl)methoxyimino)acetamido)-3-acetoxymethyl-3-cephem-4-carboxylic acid dihydrochloride] | 0.78 µg/mL | 6.25 µg/mL | < 0.1 µg/mL | < 0.1 µg/mL | 0.78 µg/mL | 12.5 µg/mL | –
Cc1cc[n+](CC2=C(C(=O)[O-])N3C(=O)[C@@H](NC(=O)/C(=N\OCc4c[nH]cn4)c4csc(N)n4)[C@H]3SC2)cc1 [IG, 7β-(2-(2-aminothiazol-4-yl)-2-((imidazol-4-yl)methoxyimino)acetamido)-3-(4-methyl-1-pyridinio)methyl-3-cephem-4-carboxylate trihydrochloride] | 0.1 µg/mL | 3.13 µg/mL | 0.2 µg/mL | < 0.1 µg/mL | 1.56 µg/mL | 3.13 µg/mL | –
CO/N=C(\C(=O)N[C@@H]1C(=O)N2C(C(=O)O)=C(COC(C)=O)CS[C@H]12)c1csc(N)n1 [a, Cephotaxim, reference compound] | 0.39 µg/mL (≈ 0.856 µM) | 12.5 µg/mL (≈ 27.4 µM) | < 0.1 µg/mL | < 0.1 µg/mL | 3.13 µg/mL (≈ 6.87 µM) | 25 µg/mL (≈ 54.9 µM) | –
Nc1nc(/C(=N/OCc2nnn[nH]2)C(=O)N[C@@H]2C(=O)N3C(C(=O)[O-])=C(C[n+]4ccccc4)CS[C@H]23)cs1 [b, 7β-(2-(2-aminothiazol-4-yl)-2-((1H-tetrazol-5-yl)methoxyimino)acetamido)-3-pyridiniomethyl-3-cephem-4-carboxylate, reference compound] | 0.39 µg/mL (≈ 0.719 µM) | 50 µg/mL (≈ 92.2 µM) | 0.1 µg/mL (≈ 0.184 µM) | 0.1 µg/mL (≈ 0.184 µM) | 3.13 µg/mL (≈ 5.77 µM) | 12.5 µg/mL (≈ 23 µM) | –
NC(=O)c1cc[n+](CC2=C(C(=O)[O-])N3C(=O)[C@@H](NC(=O)/C(=N\OCc4c[nH]cn4)c4csc(N)n4)[C@H]3SC2)cc1 [IB, 7β-(2-(2-aminothiazol-4-yl)-2-((imidazol-4-yl)methoxyimino)acetamido)-3-(4-carbamoyl-1-pyridinio)methyl-3-cephem-4-carboxylate trihydrochloride] | 0.2 µg/mL | 12.5 µg/mL | 0.2 µg/mL | < 0.1 µg/mL | 1.56 µg/mL | 1.56 µg/mL | –
Nc1nc(/C(=N/OCc2c[nH]cn2)C(=O)N[C@@H]2C(=O)N3C(C(=O)[O-])=C(C[n+]4ccccc4)CS[C@H]23)cs1 [IA, 7β-(2-(2-aminothiazol-4-yl)-2-((imidazol-4-yl)methoxyimino)acetamido)-3-(1-pyridinio)methyl-3-cephem-4-carboxylate trihydrochloride] | 0.1 µg/mL | 1.56 µg/mL | 0.1 µg/mL | 0.1 µg/mL | 0.2 µg/mL | 1.56 µg/mL | > 2500 mg/kg
Nc1nc(/C(=N/OCc2ncc[nH]2)C(=O)N[C@@H]2C(=O)N3C(C(=O)[O-])=C(C[n+]4ccccc4)CS[C@H]23)cs1 [c, 7β-(2-(2-aminothiazol-4-yl)-2-((imidazol-2-yl)methoxyimino)acetamido)-3-pyridiniomethyl-3-cephem-4-carboxylate, reference compound] | 0.2 µg/mL (≈ 0.37 µM) | 25 µg/mL (≈ 46.2 µM) | 0.39 µg/mL (≈ 0.721 µM) | 0.2 µg/mL (≈ 0.37 µM) | 1.56 µg/mL (≈ 2.89 µM) | 6.25 µg/mL (≈ 11.6 µM) | –
Cc1[nH]cnc1CO/N=C(\C(=O)N[C@@H]1C(=O)N2C(C(=O)[O-])=C(C[n+]3ccccc3)CS[C@H]12)c1csc(N)n1 [IF, 7β-(2-(2-aminothiazol-4-yl)-2-((5-methylimidazol-4-yl)methoxyimino)acetamido)-3-(1-pyridino)methyl-3-cephem-4-carboxylate trihydrochloride] | 0.2 µg/mL | 3.13 µg/mL | 0.1 µg/mL | < 0.1 µg/mL | 0.78 µg/mL | 3.13 µg/mL | –
Nc1nc(/C(=N/OCc2cn[nH]c2)C(=O)N[C@@H]2C(=O)N3C(C(=O)[O-])=C(C[n+]4ccccc4)CS[C@H]23)cs1 [IE, 7β-(2-(2-aminothiazol-4-yl)-2-((pyrazol-4-yl)methoxyimino)acetamido)-3-(1-pyridinio)methyl-3-cephem-4-carboxylate] | 0.2 µg/mL (≈ 0.37 µM) | 3.13 µg/mL (≈ 5.79 µM) | 0.1 µg/mL (≈ 0.185 µM) | < 0.1 µg/mL | 0.2 µg/mL (≈ 0.37 µM) | 6.25 µg/mL (≈ 11.6 µM) | –
Cn1nnnc1SCC1=C(C(=O)O)N2C(=O)[C@@H](NC(=O)/C(=N\OCc3c[nH]cn3)c3csc(N)n3)[C@H]2SC1 [ID, 7β-(2-(2-aminothiazol-4-yl)-2-((imidazol-4-yl)methoxyimino)acetamido)-3-(1-methyl-1H-tetrazol-5-yl)thiomethyl-3-cephem-4-carboxylic acid dihydrochloride] | 0.39 µg/mL | 3.13 µg/mL | < 0.1 µg/mL | < 0.1 µg/mL | 0.78 µg/mL | 12.5 µg/mL | –
Nc1nc(/C(=N/OCc2cc[nH]n2)C(=O)N[C@@H]2C(=O)N3C(C(=O)[O-])=C(C[n+]4ccccc4)CS[C@H]23)cs1 [IC, 7β-(2-(2-aminothiazol-4-yl)-2-((pyrazol-3-yl)methoxyimino)acetamido)-3-(1-pyridinio)methyl-3-cephem-4-carboxylate] | 0.2 µg/mL (≈ 0.37 µM) | 3.13 µg/mL (≈ 5.79 µM) | 0.1 µg/mL (≈ 0.185 µM) | < 0.1 µg/mL | 0.39 µg/mL (≈ 0.721 µM) | 1.56 µg/mL (≈ 2.89 µM) | > 2000 mg/kg
